The term IC50 denotes the concentration that gives 50% inhibition.

The structures appear in SMILES notation.

Among the data in patent publication US20030096854A1, “Substituted tricyclics” (priority 2002, published 2003) are IC50 values, retold here.

For this test, the target named is T1, recombinant human secreted phospholipase A2 (Homo sapiens, UniProt P14555).
T1 sequence (P14555 21-144): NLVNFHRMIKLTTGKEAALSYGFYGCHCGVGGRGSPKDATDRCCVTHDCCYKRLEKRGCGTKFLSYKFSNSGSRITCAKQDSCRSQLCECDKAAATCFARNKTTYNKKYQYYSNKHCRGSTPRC
The test is described as follows: Chromogenic assay for inhibitors of recombinant human secreted phospholipase A2 (Assay Example 1). The test is classed as biochemical. Particulars: diheptanoyl thio-PC substrate, pH 7.5, absorbance at 405 nm. From the text:
The following chromogenic assay procedure was used to identify and evaluate inhibitors of recombinant human secreted phospholipase A2. The assay described herein has been adapted for high volume screening using 96 well microtiter plates. A general description of this assay method is found in the article, “Analysis of Human Synovial Fluid Phospholipase A2 on Short Chain Phosphatidylcholine-Mixed Micelles: Development of a Spectrophotometric Assay Suitable for a Microtiterplate Reader”, by Laure J. Reynolds, Lori L. Hughes, and Edward A Dennis, Analytical Biochemistry, 204, pp. 190-197, 1992 (the disclosure of which is incorporated herein by reference):
Bovine Serum Albumin (fatty acid free) (1 g/L)
(Sigma A-7030, product of Sigma Chemical Co. St. Louis Mo., USA) […]
pH 7.5 (adjust with NaOH)
Adjust pH to 4.5 with acetic acid
5,5′-dithiobis-2-nitrobenzoic acid
Racemic Diheptanoyl Thio—PC racemic 1,2-bis(heptanoylthio)-1,2-dideoxy-sn-glycero-3-phosphorylcholine TRITON X-100™ prepare at 6.249 mg/ml in reaction buffer to equal […]
TRITON X-100™ is a polyoxy ethylene non-ionic
A measured volume of racemic dipheptanoyl thio PC supplied in chloroform at a concentration of 100 mg/ml is taken to dryness and redissolved in 10 millimolar TRITON X-100™ nonionic detergent aqueous solution. Reaction Buffer is added to the solution, then DTNB to give the Reaction Mixture.
The reaction mixture thus obtained contains 1 mM diheptanoly thio-PC substrate, 0.29 mm Triton X-100™ detergent, and 0.12 mm DTMB in a buffered aqueous solution at pH 7.5.
1. Add 0.2 ml reaction mixture to all wells;
2. Add 10 ul test compound (or solvent blank) to appropriate wells, mix 20 seconds;
3. Add 50 nanograms of sPLA2 (10 microliters) to appropriate wells;
4. Incubate plate at 40° C. for 30 minutes;
5. Read absorbance of wells at 405 nanometers with an automatic plate reader.
All compounds were tested in triplicate. Typically, compounds were tested at a final concentration of 5 ug/ml. […] Lack of color development at 405 nanometers evidenced inhibition. Compounds initially found to be active were reassayed to confirm their activity and, if sufficiently active, IC50 values were determined. […] In all cases, % inhibition measured at 405 nanometers generated by enzyme reactions containing inhibitors relative to the uninhibited control reactions was determined. Each sample was titrated in triplicate and result values were averaged for plotting and calculation of IC50 values. IC50 were determined by plotting log concentration versus inhibition values in the range from 10-90% inhibition.

For `NC(=O)COc1cccc2c1c1c(C(N)=O)cccc1n2Cc1ccccc1` [Compound 2a, [[5-Carbamoyl-9-(phenylmethyl)carbazol-4-yl]oxy]acetamide], the concentration for half-maximal inhibition (IC50) (compounds of formula 2) was found to be 151 nM.

As to `CCNC(=O)COc1cccc2c1c1c(C(N)=O)cccc1n2Cc1ccccc1` [Compound 2b, [[5-Carbamoyl-9-(phenylmethyl)carbazol-4-yl]oxy]-N-(ethyl)acetamide], the 50% inhibitory concentration (IC50) (compounds of formula 2) worked out at 273 nM.

On to `COC(=O)CNC(=O)COc1cccc2c1c1c(C(N)=O)cccc1n2Cc1ccccc1` [Compound 3a, N-[[[5-Carbamoyl-9-(phenylmethyl)carbazol-4-yl]oxy]acetyl]glycine methyl ester], for which the half-maximal inhibitory concentration (IC50) (compounds of formula 3) stood at 383 nM.

Take `COC(=O)[C@H](C)NC(=O)COc1cccc2c1c1c(C(N)=O)cccc1n2Cc1ccccc1` [Compound 3b, N-[[[5-Carbamoyl-9-(phenylmethyl)carbazol-4-yl]oxy]acetyl]-L-alanine Methyl Ester]: the IC50 (compounds of formula 3) was 205 nM.

On to `COC(=O)[C@H](CC(C)C)NC(=O)COc1cccc2c1c1c(C(N)=O)cccc1n2Cc1ccccc1` [Compound 3c, N-[[[5-Carbamoyl-9-(phenylmethyl)carbazol-4-yl]oxy]acetyl]-L-leucine Methyl Ester], for which, for the setting “compounds of formula 3”, the 50% inhibitory concentration (IC50) worked out at 67.5 nM.

For the compound `COC(=O)C[C@H](NC(=O)COc1cccc2c1c1c(C(N)=O)cccc1n2Cc1ccccc1)C(=O)OC` [Compound 3d, N-[[[5-Carbamoyl-9-(phenylmethyl)carbazol-4-yl]oxy]acetyl]-L-aspartic Acid Dimethyl Ester], where the note is “compounds of formula 3”, the IC50 is 513 nM.

`COC(=O)CC[C@H](NC(=O)COc1cccc2c1c1c(C(N)=O)cccc1n2Cc1ccccc1)C(=O)OC` [Compound 3e, N-[[[5-Carbamoyl-9-(phenylmethyl)carbazol-4-yl]oxy]acetyl]-L-glutamic Acid Dimethyl Ester]: the IC50 (compounds of formula 3) was 709 nM.

Take `COC(=O)[C@H](CCSC)NC(=O)COc1cccc2c1c1c(C(N)=O)cccc1n2Cc1ccccc1` [Compound 3f, N-[[[5-Carbamoyl-9-(phenylmethyl)carbazol-4-yl]oxy]acetyl]-L-methionine Methyl Ester]: the IC50 (compounds of formula 3) came out at 263 nM.

On to `COC(=O)[C@H](Cc1ccccc1)NC(=O)COc1cccc2c1c1c(C(N)=O)cccc1n2Cc1ccccc1` [Compound 3g, N-[[[5-Carbamoyl-9-(phenylmethyl)carbazol-4-yl]oxy]acetyl]-L-phenylalanine Methyl Ester], for which, for the setting “compounds of formula 3”, the concentration for half-maximal inhibition (IC50) amounted to 8600 nM.

Regarding `NC(=O)c1cccc2c1c1c(OCC(=O)NCC(=O)O)cccc1n2Cc1ccccc1` [Compound 4a, N-[[[5-Carbamoyl-9-(phenylmethyl)carbazol-4-yl]oxy]acetyl]glycine], under “compounds of formula 4”, the IC50 turned out to be 118 nM.

As to `CC(C)C[C@H](NC(=O)COc1cccc2c1c1c(C(N)=O)cccc1n2Cc1ccccc1)C(=O)O` [Compound 4c, N-[[[5-Carbamoyl-9-(phenylmethyl)carbazol-4-yl]oxy]acetyl]-L-leucine], for the setting “compounds of formula 4”, the half-inhibitory concentration (IC50) amounted to 16.1 nM.

Consider `NC(=O)c1cccc2c1c1c(OCC(=O)N[C@@H](CC(=O)O)C(=O)O)cccc1n2Cc1ccccc1` [Compound 4d, N-[[[5-Carbamoyl-9-(phenylmethyl)carbazol-4-yl]oxy]acetyl]-L-aspartic Acid], for which the half-inhibitory concentration (IC50) (compounds of formula 4) came out at 99.2 nM.

As for `NC(=O)c1cccc2c1c1c(OCC(=O)N[C@@H](CCC(=O)O)C(=O)O)cccc1n2Cc1ccccc1` [Compound 4e, N-[[[5-Carbamoyl-9-(phenylmethyl)carbazol-4-yl]oxy]acetyl]-L-glutamic Acid], under “compounds of formula 4”, the IC50 turned out to be 61.2 nM.

With `CSCC[C@H](NC(=O)COc1cccc2c1c1c(C(N)=O)cccc1n2Cc1ccccc1)C(=O)O` [Compound 4f, N-[[[5-Carbamoyl-9-(phenylmethyl)carbazol-4-yl]oxy]acetyl]-L-methionine], under “compounds of formula 4”, the half-inhibitory concentration (IC50) was 103 nM.

`NC(=O)c1cccc2c1c1c(OCC(=O)N[C@@H](Cc3ccccc3)C(=O)O)cccc1n2Cc1ccccc1` [Compound 4g, N-[[[5-Carbamoyl-9-(phenylmethyl)carbazol-4-yl]oxy]acetyl]-L-phenylalanine]: where the note is “compounds of formula 4”, the IC50 was 324 nM.
